Data reported in patent US20080076751A1, “Azetidinone Derivatives and Methods of Use Thereof” (priority 2006, published 2008).

How the values were obtained:
Format in all cases: cell-based
TRPV1 (VR1) [1] = molecular target: T1, TRPV1 (VR1) (Rattus norvegicus, UniProt O35433); test: TRPV1 screening assay (FLIPR, Fluo-4 calcium), PMA stimulation; settings: HEK293-TetOFF-TRPV1, PMA
T1 construct: expressed in transfected cells; host or cells: HEK293-TetOFF, expression induced by withdrawing doxycycline
Description: 2) FLIPR buffer is prepared fresh:
(§1) For assay: • a) Dilute stock by adding 0.8 μL into 1 mL of MeOH (final=80 uM). • b) Add 50 μL of diluted stock to 20 mL of FLIPR buffer (final=0.2 uM) • c) Agonist solution is added 150 μL/well to 96-well plate. • d) Final agonist concentration on cells will be 50 nM. […] Laser is adjusted upwards for an average signal≧10,000/well and less than 10% variability. 7) Compound addition conditions are as follows: • FLIPR setup (dual sequence parameters): • Sequence 1: • First interval 1 sec/60 counts • Second interval 6 sec/50 counts • Fluid addition=50 μL • Pipettor height 110 μL • Dispense Speed=30 μL/sec • Sequence 2: • Second interval 1 sec/60 counts • Second interval 6 sec/40 counts • Fluid addition=50 μL • Pipettor height=140 μL • Dispense Speed=50 μL/sec Data Analysis: • 1) Data from both additions is reported as Max-Min for each well

TRPV1 (VR1) [2] = molecular target: T1, TRPV1 (VR1); test: TRPV1 screening assay (FLIPR, Fluo-4 calcium), capsaicin stimulation; settings: FLIPR, HEK293-TetOFF-TRPV1, capsaicin 50 nM final; read-out: VR1 flipr CAPSAICIN IC50
From the text: (§2) • 1) Cell line: HEK293-Tet^OFF-TRPV1 • 2) Media: MEM (Invitrogen) • 3) 10% Tet-FBS (Clontech #8630-1) • 4) Fungizone (Gibe #15290-018 (100X)) • 5) Penn/Strep (Gibco #15140-122 (100X)) • 6) Geneticin (Gibco #10131-027 (100X)) • 7) Hygromycin (Clontech #8057-1) • 8) Doxycycline (Clontech #8634-1) • 9) Trypsin/EDTA (Gibco #25200-056) • 10) 100 mm cell culture plates (Falcon #3003) • 11) 96-well poly-D-lysine plates (Fisher #08-774-256) • 12) Hank's Balanced Salt Solution (HBSS) (GIBCO #14025-092) • 13) HEPES Buffer (GIBCO #15630-080) • 14) 30% BSA (Research Organics #1334A) • 15) Probenecid (Sigma P-8761) • 16) Fluo-4, AM (50 μg) (Molecular Probes F-23917) • 17) Pluronic F-127 20% (Molecular Probes P-3000). • 18) capsazepine (Sigma C-191) • 19) capsaicin (Sigma M-2028) • 20) compound plates (NUNC #442587) • 21) black pipet tips 96-well FLIPR (Robbins Scientific 1043-24-0) • 22) Additional reagents available from Fisher: methanol, DMSO, NaOH Reagent Preparation: 1) Cells: HEK293-Tet^OFF-TRPV11
(§3) • and Doxycycline 2.5 μg/mL final (from a 1000× stock in PBS) • Cells must be fed and/or split every 2-3 days (to maintain transcriptional repression with Doxycycline). • Must be split no more than 1:5 (50-75% confluency) to maintain growth and viability. • Grown on regular tissue culture plates (e.g Falcon 3003-100 mm) • Split cells via Trypsin/EDTA: incubate with trypsin at room temperature no longer than 5 minutes (HEK293 cells have a tendency to ball up if over trypsinized). • Two days prior to assay, the cells are split into 96-well plates in cell media in the absence of doxycycline at a concentration of 40,000 cells/well in a volume of 200 μL. 2) FLIPR buffer is prepared fresh:
Add 5 mL of Probenecid Solution, prepared as follows: 710 mg of probenecid (Sigma P-8761) is solubilized in 5 mL of 1N NaOH, 5 mL of above buffer is added for final volume of 10 mL. (of which 5 mL goes back into FLIPR buffer)
Combine 42 μL of dye mixture with 11 mL of FLIPR buffer/96-well plate.
Stock solution of 0.1 M capsaicin is prepared in MeOH (50 mg+1.6 mL MeOH). Store 50 μL aliquots at −80° C.
as §1

human-SP9215 (GPR119) = molecular target: T2, human-SP9215 (GPR119) (Homo sapiens, UniProt Q8TDV5); test: GPR119 screening assay (LANCE cAMP, HEK 293 Human clone 3); settings: HEK 293 Human clone 3, LANCE cAMP; read-out: GPR119 cAMP IC5O
T2 construct: expressed in transfected cells
T2 sequence (Q8TDV5 1-335): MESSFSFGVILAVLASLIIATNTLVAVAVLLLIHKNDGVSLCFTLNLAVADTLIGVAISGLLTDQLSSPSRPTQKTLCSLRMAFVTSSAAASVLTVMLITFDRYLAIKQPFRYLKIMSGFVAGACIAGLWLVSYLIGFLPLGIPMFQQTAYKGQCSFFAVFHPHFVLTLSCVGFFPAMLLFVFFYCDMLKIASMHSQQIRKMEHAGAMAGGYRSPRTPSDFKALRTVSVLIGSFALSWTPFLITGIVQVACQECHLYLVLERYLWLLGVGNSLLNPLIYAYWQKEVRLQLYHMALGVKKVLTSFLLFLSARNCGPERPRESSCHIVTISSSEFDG
Description: • +100 mg BSA (MP Biomedicals faction V, #103703)=0.1% • +500 μL 1M HEPES (Cellgro #25-060-Cl)=5 mM • +75 μL RO-20 (Sigma B8279; 20 mM stock in DMSO stored in aliquots at −20° C.)=15 μM • (made fresh daily) B84 (N-[4-(methylsulfonyl)phenyl]-5-nitro-6-[4-(phenylthio)-1-piperidinyl]-4-pyrimidinamine, see WO 2004/065380): A 10 mM stock solution of the test compound in DMSO was prepared, aliquoted and stored at −20° C. For Totals—Dilute 1:33.3 in DMSO then 1:50 in Stimulation Buffer=6 μM in 2% DMSO (=3 μM B84 and 1% DMSO final). For Dose Response Curve -3 μL stock+7 μL DMSO+490 μL Stim Buffer=60 μM in 2% DMSO (=30 μM B84 and 1% DMSO final). (made fresh daily). Cell Line Human clone 3: HEK 293 cells stable transfected with human-SP9215 (GPR119)/pcDNA3.1 and also stable for pCRELuc, Stratagene. Cells are maintained in DMEM containing 10% FBS (Invitrogen #02-4006Dk, lot #1272302, heat inactivated), 1×MEM, 1× Pen/Strep, 0.1 mg/mL Hygromycin B, and 0.5 mg/mL G418. Cells are split 1:8 twice per week. cAMP Kit: LANCE™ cAMP 384 kit, Perkin Elmer #AD0263 Compound Dilutions • 1. Add DMSO to vials containing compounds to provide a 1 mg/mL solution. • 2. Dilute compounds to 60 μM in Stimulation buffer. Make ½ log dilutions into stimulation buffer containing 2% DMSO using the epMotion robot. 10 point dose response curve 1 nM to 30 μM. • 3. Compounds are run in quadruplicate, 2 separate dilutions for each, sets 1 and 1a. Assay Procedure • 1. The afternoon before the assay, replace the media in the flask of Human clone 3 cells with Optimem. (Gibco # 11058-021) NOTE: cells should be in culture 6-8 days. • 2. Next morning, pipet the cells gently off the flask using HBSS (at room temperature). • 3. Pellet the cells (1300 rpm, 7 minutes, room temperature) and resuspend in Stimulation Buffer at 2.5×10e6/mL (=5-8,000 cell/6 μL). Add 1:100 dilution of Alexa Fluor 647-anti cAMP antibody (provided in the kit) directly to the cell suspension. • 4. Into white 384-well plates (Matrix) add 6 μL of 2×B84, cmpds or stim buffer for nsb. They all contain 2% DMSO (=1% DMSO final). • Add 6 μL of the cell suspension to the wells. Incubate 30 minutes at room temperature. • For the std curve add 6 μL cAMP std solution diluted in Stim Buffer+2% DMSO according to kit directions (1000-3 nM). Add 6 μL of 1:100 anti-cAMP dilution in Stim Buffer to std wells. • Make Detection Mix according to kit instructions and incubate 15 minutes at room temperature. • Add 12 μL Detection Mix to all the wells.

rat VR1 = molecular target: T3, rat VR1 (Rattus norvegicus, UniProt O35433); test: TRPV1 screening assay (FLIPR), rat VR1 % activation at single concentration
T3 construct: expressed in transfected cells; host or cells: HEK293-TetOFF
From the text: as §2, §3
For assay: • a) Dilute stock by adding 0.8 μL into 1 mL of MeOH (final=80 uM). • b) Add 50 μL of diluted stock to 20 mL of FLIPR buffer (final=0.2 uM) • c) Agonist solution is added 150 μL/well to 96-well plate. • d) Final agonist concentration on cells will be 50 nM. (˜EC80) 6) Compound Plate preparation: • a) Compound plate is filled with 150 μL/well of FLIPR buffer • b) 3 μL of compound mixtures (1 mg/mL) is added to each well (represents a 3× solution and final DMSO=0.67%) Assay Procedure: • 1) Media is removed from cells grown in 96-well dishes. • 2) 100 μL of Fluo-4 containing FLIPR buffer in pipetted into each well. • 3) Plates are incubated for 30-60 minutes at 37° C. in 5% CO2 incubator. • 4) Plates are then washed three times with 100 μL of FLIPR buffer. • 5) 100 μL of FLIPR buffer is left in each well and plate is incubated at 37° C. for at least 20 minutes. • 6) Signal of dye-labeled plate is initially determined using laser at 0.300 W with an exposure time of 0.4 seconds. Laser is adjusted upwards for an average signal≧10,000/well and less than 10% variability. 7) Compound addition conditions are as follows: • FLIPR setup (dual sequence parameters): • Sequence 1: • First interval 1 sec/60 counts • Second interval 6 sec/50 counts • Fluid addition=50 μL • Pipettor height 110 μL • Dispense Speed=30 μL/sec • Sequence 2: • Second interval 1 sec/60 counts • Second interval 6 sec/40 counts • Fluid addition=50 μL • Pipettor height=140 μL • Dispense Speed=50 μL/sec Data Analysis: • 1) Data from both additions is reported as Max-Min for each well

T1 sequence (O35433 whole entry): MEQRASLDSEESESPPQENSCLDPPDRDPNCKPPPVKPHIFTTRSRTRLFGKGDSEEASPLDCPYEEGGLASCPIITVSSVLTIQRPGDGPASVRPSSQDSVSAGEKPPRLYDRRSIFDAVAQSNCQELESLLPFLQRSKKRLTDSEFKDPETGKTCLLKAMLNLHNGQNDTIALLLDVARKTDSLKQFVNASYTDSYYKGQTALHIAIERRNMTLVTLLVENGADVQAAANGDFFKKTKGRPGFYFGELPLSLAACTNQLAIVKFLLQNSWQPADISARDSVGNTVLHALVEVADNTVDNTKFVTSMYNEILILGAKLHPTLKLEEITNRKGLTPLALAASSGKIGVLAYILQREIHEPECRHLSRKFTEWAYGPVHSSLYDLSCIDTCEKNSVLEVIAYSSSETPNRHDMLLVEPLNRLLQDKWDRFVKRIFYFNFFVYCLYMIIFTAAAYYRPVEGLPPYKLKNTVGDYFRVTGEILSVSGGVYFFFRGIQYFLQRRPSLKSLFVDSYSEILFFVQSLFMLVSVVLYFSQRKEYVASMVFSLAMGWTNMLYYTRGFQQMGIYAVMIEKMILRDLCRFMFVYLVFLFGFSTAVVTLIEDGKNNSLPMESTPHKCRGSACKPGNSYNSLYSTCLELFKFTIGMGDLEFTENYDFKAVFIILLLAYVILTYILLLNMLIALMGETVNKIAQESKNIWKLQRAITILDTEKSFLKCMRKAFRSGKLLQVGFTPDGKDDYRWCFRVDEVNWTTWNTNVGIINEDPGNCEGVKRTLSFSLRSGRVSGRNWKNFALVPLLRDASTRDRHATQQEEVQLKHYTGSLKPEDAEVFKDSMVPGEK
T3 sequence (O35433 whole entry): as above

O=C(Nc1ccc(C(F)(F)F)cc1)N1CCC2(CC1)C(=O)N(c1ccccn1)C2c1ccccc1 (stereo not drawn)
IC50 (TRPV1 (VR1) [1]): 16 nM
IC50 (TRPV1 (VR1) [2]): 20 nM

CC(C)(C)c1ccc(NC(=O)N2CCC3(CC2)CN(c2ccccc2)C3=O)cc1
IC50 (TRPV1 (VR1) [1]): 59 nM
IC50 (TRPV1 (VR1) [2]): 80 nM

CCC(C)c1ccc(NC(=O)N2CCC3(CC2)C(=O)N(c2ccccc2)C3c2ccccc2)cc1 (stereo not drawn)
IC50 (TRPV1 (VR1) [1]): 81 nM
IC50 (TRPV1 (VR1) [2]): 98 nM

O=C(Nc1ccc(C(F)(F)F)cn1)N1CCC2(CC1)C(=O)N(c1ccccc1)C2c1ccccc1 (stereo not drawn)
IC50 (TRPV1 (VR1) [1]): 205 nM
IC50 (TRPV1 (VR1) [2]): 315 nM

CC(C)c1ccc(NC(=O)N2CCC3(CC2)CN(c2ccccc2)C3=O)cc1
IC50 (TRPV1 (VR1) [1]): 5 nM
IC50 (TRPV1 (VR1) [2]): 504 nM

N#Cc1ccc(N2C(=O)C3(CCN(C(=O)c4ccc5c(c4)OCCCO5)CC3)C2c2ccc(Cl)cc2)cc1 (stereo not drawn)
IC50 (human-SP9215 (GPR119)): 2280 nM

O=C(Nc1ccc(C(F)(F)F)cc1)N1CCC2(CC1)C(=O)N(c1ccccn1)C2c1ccccc1 (single isomer, unassigned)
IC50 (TRPV1 (VR1) [1]): 7 nM
IC50 (TRPV1 (VR1) [2]): 7 nM

CC(C)(C)c1ccc(NC(=O)N2CCC3(CC2)C(=O)N(c2ccccc2)C3c2ccccc2)cc1 (single isomer, unassigned)
IC50 (TRPV1 (VR1) [1]): 12 nM
IC50 (TRPV1 (VR1) [2]): 9 nM

CC(C)(C)C1CCC(NC(=O)N2CCC3(CC2)C(=O)N(c2ccccc2)C3c2ccccc2)CC1 (single isomer, unassigned)
IC50 (TRPV1 (VR1) [1]): 31 nM
IC50 (TRPV1 (VR1) [2]): 48 nM

CC(C)(C)C1CCC(NC(=O)N2CCC3(CC2)CN(c2ccccc2)C3=O)CC1 (single isomer, unassigned)
IC50 (TRPV1 (VR1) [1]): 123 nM
IC50 (TRPV1 (VR1) [2]): 84 nM

O=C(Nc1cccc(C(F)(F)F)c1)N1CCC2(CC1)C(=O)N(c1ccc(F)c(Cl)c1)C2c1ccccn1 (stereo not drawn) [drawing 660]
rat VR1 % activation @ 3.3 ug/ml compound (rat VR1): 98%

O=C(Nc1cccc(C(F)(F)F)c1)N1CCC2(CC1)C(=O)N(c1cncc(Cl)c1)C2c1ccccn1 (stereo not drawn) [drawing 661]
rat VR1 % activation @ 3.3 ug/ml compound (rat VR1): 61%

N#Cc1cc(F)cc(NC(=O)N2CCC3(CC2)C(=O)N(c2ccc(F)c(Cl)c2)C3c2ccccn2)c1 (stereo not drawn) [drawing 662]
rat VR1 % activation @ 3.3 ug/ml compound (rat VR1): 67%

N#Cc1cccc(N2C(=O)C3(CCN(C(=O)Nc4cccc(C(F)(F)F)c4)CC3)C2c2ccccn2)c1 (stereo not drawn) [drawing 663]
rat VR1 % activation @ 3.3 ug/ml compound (rat VR1): 61%

O=C(Nc1cc(F)cc(F)c1)N1CCC2(CC1)C(=O)N(c1cccc(Cl)c1)C2c1cccnc1 (stereo not drawn) [drawing 664]
rat VR1 % activation @ 3.3 ug/ml compound (rat VR1): 75%
